Measured values reported in patent EP0004590A1, “Penicillin and cephalosporin derivatives, processes for their preparation and their applications” (BAYER AG, priority 1978, dated 1979).

Legend:
[1] = test system: E. coli Neumann; test: Minimum inhibitory concentration (MHK); format: cell-based
[2] = test system: Serratia 16 001; test: Minimum inhibitory concentration (MHK); format: cell-based
[3] = test system: Provid. 12012; test: Minimum inhibitory concentration (MHK); format: cell-based
[4] = test system: Klebsiella 6097; test: Minimum inhibitory concentration (MHK); format: cell-based
[5] = test system: Proteus rettg.; test: Minimum inhibitory concentration (MHK); format: cell-based
[6] = test system: E. coli C 165; test: Minimum inhibitory concentration (MHK); format: cell-based
[7] = test system: Prot. vulg. 9023; test: Minimum inhibitory concentration (MHK); format: cell-based
[8] = test system: E.coli 183/58; test: Minimum inhibitory concentration (MHK); format: cell-based
[9] = test system: Escherichia coli Neumann; test: Animal test with the white mouse, intraperitoneal infection, ED50 after 24 hours; format: in vivo, weiße Maus; conditions: sc; white mice strain CF1 infected intraperitoneally with Escherichia coli Neumann; subcutaneous; therapy 30 and 90 minutes after infection; dose at which 50 % of infected animals survive after 24 hours; read-out: ED50 nach 24 Stunden
Source text: Aus der folgenden Tabelle 1 geht die Wirkung einer der erfindungsgemäßen Verbindungen gegen eine Reihe von Bakterien im Tierversuch mit der weißen Maus hervor. Die weißen Mäuse vom Stamm CF1 wurden intraperitoneal mit der jeweils angegebenen Bakterienart infiziert.
Therapie: zweimalig : 30 und 90 Minuten nach der Infektion. Die ED50 ist die Dosis, bei der 50 % der infizierten Tiere nach 24 Stunden nocht überleben.

[10] = test system: Klebs. 63; test: Minimum inhibitory concentration (MHK); format: cell-based
[11] = test system: Psdm. F 41; test: Minimum inhibitory concentration (MHK); format: cell-based
[12] = test system: E. coli 4322; test: Minimum inhibitory concentration (MHK); format: cell-based

CN1C(=O)CCN(C(=O)N[C@@H](C(=O)N[C@@H]2C(=O)N3[C@@H]2SC(C)(C)[C@@H]3C(=O)O)c2ccccc2)C1=O [Beispiel 1] was tested, and the “Wirksamkeit (MHK in E/ml)” value [1] was 4 E/ml.
For CN1C(=O)CCN(C(=O)N[C@@H](C(=O)N[C@@H]2C(=O)N3[C@@H]2SC(C)(C)[C@@H]3C(=O)O)c2ccc(O)cc2)C1=O [Beispiel 2], the “Wirksamkeit (MHK in E/ml)” value [2] was 16 E/ml.
In the case of CC(=O)OCC1=C(C(=O)O)N2C(=O)[C@@H](NC(=O)[C@H](NC(=O)N3CCC(=O)N(C)C3=O)c3ccccc3)[C@H]2SC1 [Beispiel 3], the “Wirksamkeit (MHK in E/ml)” value [1] is reported as 8-16 E/ml.
CCN1C(=O)CCN(C(=O)N[C@@H](C(=O)N[C@@H]2C(=O)N3[C@@H]2SC(C)(C)[C@@H]3C(=O)O)c2ccccc2)C1=O [Beispiel 4] was tested, and the “Wirksamkeit (MHK in E/ml)” value [3] was 16 E/ml, the “Wirksamkeit (MHK in E/ml)” value [4] was 16 E/ml and the “Wirksamkeit (MHK in E/ml)” value [5] was 16 E/ml. The “Wirksamkeit (MHK in E/ml)” value [1] was 4 E/ml.
For CCN1C(=O)CCN(C(=O)N[C@@H](C(=O)N[C@@H]2C(=O)N3[C@@H]2SC(C)(C)[C@@H]3C(=O)O)c2ccc(O)cc2)C1=O [Beispiel 5], the “Wirksamkeit (MHK in E/ml)” value [6] was 16 E/ml and the “Wirksamkeit (MHK in E/ml)” value [7] was 16 E/ml.
With CCCN1C(=O)CCN(C(=O)N[C@@H](C(=O)N[C@@H]2C(=O)N3[C@@H]2SC(C)(C)[C@@H]3C(=O)O)c2ccccc2)C1=O [Beispiel 6] the “Wirksamkeit (MHK in E/ml)” value [4] was 16 E/ml and the “Wirksamkeit (MHK in E/ml)” value [8] was 4 E/ml.
For CCCN1C(=O)CCN(C(=O)N[C@@H](C(=O)N[C@@H]2C(=O)N3C(C(=O)O)=C(COC(C)=O)CS[C@H]23)c2ccccc2)C1=O [Beispiel 8], the “Wirksamkeit (MHK in E/ml)” value [1] was 4 E/ml and the “Wirksamkeit (MHK in E/ml)” value [7] was 8 - 16 E/ml.
In the case of CC1(C)S[C@@H]2[C@H](NC(=O)[C@H](NC(=O)N3CCC(=O)N(C4CC4)C3=O)c3ccccc3)C(=O)N2[C@H]1C(=O)O [Beispiel 9], the “Wirksamkeit (MHK in E/ml)” value [2] is reported as 16 E/ml, the ED50 [9] is reported as 300 mg/kg and the “Wirksamkeit (MHK in E/ml)” value [10] is reported as 8 - 16 E/ml. For the same molecule, the “Wirksamkeit (MHK in E/ml)” value [1] was 4 E/ml.
For CC1(C)S[C@@H]2[C@H](NC(=O)[C@H](NC(=O)N3CCC(=O)N(C4CC4)C3=O)c3ccc(O)cc3)C(=O)N2[C@H]1C(=O)O [Beispiel 10], the “Wirksamkeit (MHK in E/ml)” value [11] was 64 E/ml and the “Wirksamkeit (MHK in E/ml)” value [12] was 16 E/ml.
In the case of CC(=O)OCC1=C(C(=O)O)N2C(=O)[C@@H](NC(=O)[C@H](NC(=O)N3CCC(=O)N(C4CC4)C3=O)c3ccccc3)[C@H]2SC1 [Beispiel 11], the “Wirksamkeit (MHK in E/ml)” value [8] is reported as 16 E/ml.
